# Test results taken from the pKa sets of Baltruschat and Czodrowski (2020).
# Conditions: basic group
row,Structure (SMILES),pKa
1,NC(CC(=O)[O-])c1ccccn1 (stereo unspecified),9.22
2,COc1nc(N)c2[nH]cnc2n1,3.7
3,O=C(CCCN1CCC(O)(c2ccccc2)CC1)c1ccccc1,8.4
4,CCCCCCCCCCCCCCN(CC(C)O)CC(C)O (stereo unspecified),8.4
5,Cc1cc2c(cc1N)Sc1cc(N(C)C)ccc1N2,5.41
6,CC(C)N/C=[NH+]/c1ccc(-c2c[nH]cn2)cc1,5.58
7,Nc1ccc([N+](=O)[O-])c2ccccc12,0.53
8,OCCc1cnc(P(c2[nH]c(CCO)c[nH+]2)c2[nH]c(CCO)c[nH+]2)[nH]1,5.75
9,NCCC(=O)N[C@@H](Cc1cnc[nH]1)C(=O)[O-],9.35
10,O=C(O)c1ccc(/N=C/c2ccccc2)cc1,1.97
11,CSc1ccc(N)c(I)c1,2.45
12,CN1C2CCC(C2)N1C,6.89
13,C1OC1CN(CC1CO1)CC1CO1 (stereo unspecified),5.01
14,Cc1ccn(-c2cccc[nH+]2)n1,-3.9
15,CCN(CC)c1nc(N)nc(N)n1,5.61
16,CSc1nc(C)cc(=O)n1C,0.9
17,CCN(c1ccccc1)C(C)(C)C,8.02
18,C1CCN(CC[NH+]2CCCC2)C1,6.3
19,COc1ccc(S(=O)(=O)NCCCN2CCOCC2)c(OC)c1OC,6.76
20,Cc1cccc(N)c1,4.7
21,CCCNC(=O)[C@H](Cc1c[nH]c[nH+]1)NC(=O)c1cccc(CNCC[NH3+])n1,5.9
22,Nc1nc(N)c2cnn(-c3ccccc3)c2n1,4.49

row,Structure (SMILES),pKa
1,C[NH+]1CCCC1c1cccnc1 (stereo unspecified),3.01
2,CNc1nccn2cc(-c3ccc(S(C)=O)cc3OC)nc12 (stereo unspecified),5.36
3,Cc1c(N)ccc2c1-c1ccccc1C2,4.83
4,Nc1ccnnc1,6.69
5,COC(=O)c1nc2cc(Cl)ccc2[nH]1,0.3
6,C=C[C@]1(O)C[C@H](C)N[C@@H]2CCCC[C@H]21,9.83
7,C=CCN(C)C,8.72
8,C[C@@H]1CNC[C@H](C)[NH2+]1,5.4
9,CC(N)CCc1ccc(O)cc1 (stereo unspecified),9.14
10,CC(C)[C@H]1CN[C@H](C(=O)[O-])[C@H]1CC(=O)[O-],10.6
11,Oc1cccc2cccnc12,5.02
12,O=C(CCCN1CCOCC1)c1ccccc1,7.26
13,N[C@@H](Cc1c[nH]c2ccccc12)C(=O)[O-],9.31
14,OCn1cnc2ccccc21,5.44
15,NC(=S)C[NH3+],-8.39
16,COc1ccc2c(c1)cc(C)n2C,0.25
17,O=C(/C=N/O)NCCN1CCOCC1,6.19
18,COC(=O)c1ccc(N(C)C)cc1,2.61
19,COC(=O)C1=CN2CCC1CC2,7.17
20,COc1cc(CN)c(C)cc1N,9.54
21,c1cc(-c2ccncc2)ccn1,4.82
22,CCN(CC)Cc1cc(Cl)ccc1[O-],11.2

row,Structure (SMILES),pKa
1,Nc1ccc(S(=O)(=O)Nc2cccnc2)cc1,3
2,Cn1c(N)nc2nc[nH]c2c1=O,3.2
3,CCCNCC[S-],10.9
4,[NH3+]c1ccc(-c2cnc(-c3ccc(Br)cc3)o2)cc1,0.26
5,CC(C)Nc1ncnc2c1cnn2C,4.22
6,CC(C)(C)c1ccccc1N,3.78
7,[NH3+]Cc1nc2ccccc2[nH]1,3.28
8,CC(C)NCCCCCCNC(C)C,11.2
9,N#CC(C#N)=NNc1ccc(C(=O)CCl)cc1,-0.76
10,Cn1ccnc1CS,6.31
11,CCCCNc1ccnc([S-])n1,11.1
12,Nc1ncc([N+](=O)[O-])s1,0.61
13,NC(=O)C([NH3+])Cc1c[nH]cn1 (stereo unspecified),5.78
14,CC(C)(N)CO,9.74
15,Cc1cccnc1N,7.24
16,Nc1ccc2c(c1)Cc1cc(O)ccc1-2,4.88
17,CC1=CSC2=NCCCN12,10.3
18,CNN,7.87
19,NCC(N)C[NH3+],7.95
20,CCc1cc(-c2ccccc2)nnc1NCC[NH+]1CCOCC1,4.37
21,Cc1ccnc(NS(=O)(=O)c2ccc(N)cc2)n1,2.08
22,NCCc1ccccc1,9.89

row,Structure (SMILES),pKa
1,Cc1ccccc1C(=NCC[NH+](C)C)c1ccccc1C,2.82
2,CCc1ccc(O)c(CN(C)C)c1,8.51
3,COc1cc(S(C)=O)ccc1-c1cn2ccncc2n1 (stereo unspecified),2.88
4,Cc1nc2cc(N)ccc2[nH]1,6.95
5,O=[N+]([O-])c1ccc2[nH]c(-c3ccccc3)nc2c1,2.95
6,Cc1nc2cncnc2nc1C,2.93
7,CCN(CC)CCOCCN(C)C,10.2
8,N=C(c1ccccc1)c1cccc(Cl)c1,5.69
9,NCCCCc1ccccn1,10.3
10,C[C@@H](O)[C@H](CCC=O)O[C@H]1O[C@H](C)[C@@H](N(C)C)[C@H](O)[C@H]1O,7
11,O=C(N/[NH+]=C/c1ccccc1)c1ccncc1,1.82
12,Cc1nc([O-])n[nH]1,9.43
13,Cc1ccnnc1,3.22
14,CCCCN1CCCCC1C (stereo unspecified),10.7
15,CCCCNCC(=O)Nc1c(C)cccc1C,8.04
16,CC1CCCNC1 (stereo unspecified),10.9
17,O=[N+](O)C1=CC=CC1,3.25
18,CC(N)Cc1ccc2c(c1)OCO2 (stereo unspecified),9.67
19,COc1ccc2nccc(C(O)C3CCCCN3)c2c1 (stereo unspecified),9.3
20,c1cnc2c(c1)ccc1c3c(cnc12)CCC3,5.78
